Measurements reported in US20240182470A1, “KRASG12C MUTANT PROTEIN INHIBITOR, PREARATION AND USE THEREOF” (YA THERAPEUTICS INC, priority 2021, published 2024).
pIC50: −log10 of the molar value. Where two headings read alike, the source gives them in different places.

What was measured:
[1] = biological target: T1, KRAS-G2C/SOS1 (Homo sapiens, UniProt P01116, G12C); test: KRAS-G12C/SOS1 binding experiment (HTRF); details: Tag2-KRAS-G12C protein and Tag1-SOS protein
T1 construct: Tag2 (identity not disclosed)
Description: • A) Dilute Tag2-KRAS-G12C protein and Tag1-SOS protein with diluent at 1:100, anti-Tag1-Tb3+ antibody and anti-Tag2-XL665 with detection buffer at 1:100 or 1:25 respectively Dilute. • B) Dilute the compound to be tested with diluent starting from […] concentration, 4 times gradient, a total of 6 concentration gradients, and dilute to 10× stock solution. • C) In a 96-well plate, add 4 uLTag2-KRAS-G12C protein, 4 uL Tagl-SOS protein, 2 ul dilution solution (positive control) or test compound (different concentrations of 10× stock solution) to each well in sequence, a total of 10 ul, and incubate at room temperature for […], add pre-mixed 5 uL anti-Tagl-Tb3+ and 5 uL anti-Tag2-xL665, seal the plate, incubate at room temperature for 2 hours, and read the HTRF signal with a TECAN INFINITEF NANO+ microplate reader.
The ratio of […] and donor excitation signals for each single well was calculated using the formula ratio=665 nm signal value/620 nm signal value×[…]. Data were processed using Graphpadprism5 software. IC50 values were calculated by sigmoidal dose-response curve fitting.

[2] = tested on: H358 (KRAS G12C mutant) cells; test: Tumor cell proliferation inhibition assay (Cell Titer-Glo, 72 h); assay type: cell-based; details: inhibition of tumor cell proliferation, 72 hours with compound, 10% fetal bovine serum, read-out: NCI-H538 IC50(nm)
Method in brief: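 H358 cells seeded, cultured 24 h, then exposed to serial compound concentrations for 72 h in 10% FBS at 37 °C, 5% CO2. ATP measured by CellTiter-Glo; % inhibition relative to DMSO (max) and medium-only (min) signals. IC50 from sigmoid dose-response fit, binned into categories A–D.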

[3] = background statement; cited from earlier work
[4] = biological target: KRAS G12C (Homo sapiens, UniProt P01116, G12C); details: background statement; cited from earlier work

| pIC50 [1] | Compound | pIC50 [2] | further results |
| --- | --- | --- | --- |
| > 7.30 | 7-(8-Fluoronaphthyl)-6-fluoro-4-(((S)-4-(2-fluoroacryloyl)-3-carbonitrileethylpiperazine)-1-yl)-2-((((S)-1-methylpyrrolidin-2-yl)methoxy)-1,8-naphthyridine [Compound 5] | ≥ 7.30 |  |
|  | C=CC(=O)N1CC(N2CCN(C(=O)CNc3cc(C4(C)CC4)c(Cl)cc3O)CC2)C1 [ARS-853] |  | pharmacokinetic properties [3]: poor |
|  | C=CC(=O)N1CCN(c2ncnc3c(F)c(-c4c(O)cccc4F)c(Cl)cc23)CC1 [ARS-1620] |  | tumor effect in vivo [4]: induce tumor regression |
| < 6.30 | C=CC(=O)N1CCN(c2cc(OC[C@@H]3CCCN3C)nc3nc(-c4c(O)cccc4F)ccc23)[C@H](C)C1 [Compound 1, 7-(2-Fluoro-6-hydroxyphenyl)-4-(((R)-4-acryloyl-2-methylpiperazine)-1-yl)-2-(((S)-1-methylpyrrolidin-2-yl)methoxy)-1,8-naphthyridine] | < 5.70 |  |
| < 6.30 | C=C(F)C(=O)N1CCN(c2cc(OC[C@@H]3CCCN3C)nc3nc(-c4c(O)cccc4F)c(F)cc23)[C@H](C)C1 [Compound 2, 7-(2-Fluoro-6-hydroxyphenyl)-6-fluoro-4-(((R)-4-(2-fluoroacryloyl)-2-methylpiperazine)-1-yl)-2-(((S)-1-methylpyrrolidin-2-yl)methoxy)-1,8-naphthyridine] |  | pIC50 ([2]; Homo sapiens, NCI-H358): < 5.70 |
| < 6.30 | C=CC(=O)N1CCN(c2cc(OC[C@@H]3CCCN3C)nc3nc(-c4c(O)cccc4F)c(F)cc23)C[C@@H]1CC#N [Compound 3] |  | pIC50 ([2]; Homo sapiens, NCI-H358): < 5.70 |
| < 6.30 | C=C(F)C(=O)N1CCN(c2cc(OC[C@@H]3CCCN3C)nc3nc(-c4c(O)cccc4F)c(F)cc23)C[C@@H]1CC#N [Compound 4, 7-(2-Fluoro-6-hydroxyphenyl)-6-fluoro-4-(((S)-4-(2-fluoroacryloyl)-3-carbonitrileethylpiperazine)-1-yl)-2-(((S)-1-methylpyrrolidin-2-yl)methoxy)-1,8-naphthyridine] |  | pIC50 ([2]; Homo sapiens, NCI-H358): < 5.70 |
| > 7.30 | C=CC(=O)N1CCN(c2cc(OC[C@@H]3CCCN3C)nc3nc(-c4cccc5cccc(F)c45)c(F)cc23)[C@H](C)C1 [Compound 7] |  | pIC50 ([2]; Homo sapiens, NCI-H358): ≥ 7.30 |
|  | C=C(F)C(=O)N1CCN(c2nc(OC[C@@]34CCCN3CC(F)(F)C4)nc3c(F)c(-c4cccc5cccc(F)c45)c(Cl)cc23)C[C@@H]1CC#N [Compound 78, 6-Chloro-7-(8-fluoronaphthyl)-8-fluoro-4-(((S)-4-(2-fluoroacryloyl)-3-carbonitrileethylpiperazine)-1-yl)-2-(((S)-2,2-difluorotetrahydro-1H-pyrincycline-7a(5H)-yl)methoxy)quinazoline] | ≥ 7.30 |  |
|  | C=C(F)C(=O)N1CCN(c2nc(OC[C@@]34CCCN3CC(F)(F)C4)nc3nc(-c4cccc5cccc(F)c45)c(F)cc23)C[C@@H]1CC#N [Compound 83] | ≥ 7.30 |  |
|  | C=C(F)C(=O)N1CCN(c2nc(OC[C@@]34CCCN3CC(F)(F)C4)nc3nc(-c4cc(O)cc5cccc(F)c45)c(F)cc23)C[C@@H]1CC#N [Compound 84, 7-(3-Hydroxy-8-fluoronaphthyl)-6-fluoro-4-(((S)-4-(2-fluoroacryloyl)-3-carbonitrileethylpiperazine)-1-yl)-2-(((S)-2,2-difluorotetrahydro-1H-pyrinyl-7a(5H)-yl)methoxy)pyridine[2,3-d]lopyrimidine] | ≥ 7.30 |  |
|  | C=CC(=O)N1CCN(c2nc(OC[C@@]34CCCN3CC(F)(F)C4)nc3nc(-c4cccc5cccc(F)c45)ccc23)[C@H](C)C1 [Compound 86, 7-(8-Fluoronaphthyl)-4-(((R)-4-Acryloyl-2-methylpiperazine)-1-yl)-2-(((S)-2,2-difluorotetrakisHydro-1H-pyrincycl-7a(5H)-yl)methoxy)pyridine[2,3-d]lopyrimidine] | ≥ 7.30 |  |
|  | C=CC(=O)N1CCN(c2nc(OC[C@@]34CCCN3C[C@H](F)C4)nc3nc(-c4cccc5cccc(C)c45)ccc23)[C@H](C)C1 [Compound 89, 7-(8-Methylnaphthyl)-4-(((R)-4-Acryloyl-2-methylpiperazine)-1-yl)-2-(((2R,7aS)-2-fluorotetrahydro-1H-pyrincycl-7a(5H)-yl)methoxy)pyridine[2,3-d]lopyrimidine] | ≥ 7.30 |  |
|  | C=C(F)C(=O)N1CCN(c2nc(OC[C@@]34CCCN3CC(F)(F)C4)nc3nc(-c4cccc5cccc(F)c45)ccc23)C[C@@H]1CC#N [Compound 90, 7-(8-Fluoronaphthyl)-4-(((S)-4-(2-fluoroacryloyl)-3-carbonitrileethylpiperazine)-1-yl)-2-(((S)-2,2-difluorotetrahydro-1H-pyrincyclo-7a(5H)-yl)methoxy)pyridine[2,3-d]lopyrimidine] | ≥ 7.30 |  |
|  | C=C(F)C(=O)N1CCN(c2nc(OC[C@@]34CCCN3CC(F)(F)C4)nc3nc(-c4cc(O)cc5cccc(F)c45)ccc23)C[C@@H]1CC#N [Compound 91, 7-(3-Hydroxy-8-fluoronaphthyl)-4-(((S)-4-(2-fluoroacryloyl)-3-carbonitrileethylpiperazine)-1-yl)-2-(((S)-2,2-difluorotetrahydro-1H-pyrincycl-7a(5H)-yl)methoxy)pyridine[2,3-d]lopyrimidine] | ≥ 7.30 |  |
|  | C=C(F)C(=O)N1CCN(c2nc(OC[C@@]34CCCN3C[C@H](F)C4)nc3nc(-c4cccc5cccc(F)c45)ccc23)C[C@@H]1CC#N [Compound 92, 7-(8-Fluoronaphthyl)-4-(((S)-4-(2-fluoroacryloyl)-3-carbonitrileethylpiperazine)-1-yl)-2-(((2R,7aS)-2-fluorotetrahydro-1H-pyrincycl-7a(5H)-yl)methoxy)pyridine[2,3-d]lopyrimidine] | ≥ 7.30 |  |
|  | C=C(F)C(=O)N1CCN(c2nc(OC[C@@]34CCCN3C[C@H](F)C4)nc3nc(-c4cccc5cccc(C)c45)ccc23)C[C@@H]1CC#N [Compound 93] | ≥ 7.30 |  |

| Compound | pIC50 [1] | pIC50 [2] | further results |
| --- | --- | --- | --- |
| C=CC(=O)N1C2CCC1CN(c1cc(OC[C@@]34CCCN3C[C@H](F)C4)nc3nc(-c4cccc5cccc(F)c45)c(F)cc13)C2 [Compound 28] | > 7.30 |  | pIC50 ([2]; Homo sapiens, NCI-H358): ≥ 7.30 |
